Source: patent publication EP0153845A2, “CRF analogs” (THE SALK INSTITUTE FOR BIOLOGICAL STUDIES, priority 1984, dated 1985)
Square brackets hold non-standard residues; d marks the D form. Peptide text beside a SMILES is read from it. Nle = CCCC[C@H](N)C(=O)O

How the values were obtained:
[1] = biological target: T1, cultured rat pituitary cells (Rattus norvegicus, UniProt P35353); test: Stimulation of ACTH and β-endorphin secretion by cultured rat pituitary cells (general procedure of Example III); type: cell-based; details: general procedure of Example III
T1 sequence (P35353 24-415): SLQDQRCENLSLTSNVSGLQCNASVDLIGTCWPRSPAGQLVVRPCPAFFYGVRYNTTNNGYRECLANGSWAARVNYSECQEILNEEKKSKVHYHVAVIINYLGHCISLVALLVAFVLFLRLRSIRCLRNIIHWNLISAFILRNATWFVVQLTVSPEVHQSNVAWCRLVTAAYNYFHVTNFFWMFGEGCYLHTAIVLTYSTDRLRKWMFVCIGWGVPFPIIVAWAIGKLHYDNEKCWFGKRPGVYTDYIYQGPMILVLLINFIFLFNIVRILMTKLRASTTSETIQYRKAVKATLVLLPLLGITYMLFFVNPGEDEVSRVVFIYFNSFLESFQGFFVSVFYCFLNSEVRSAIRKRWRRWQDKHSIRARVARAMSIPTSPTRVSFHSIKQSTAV
Procedure: The synthetic peptide AHC and oCRF were examined for their effects on the secretion of ACTH and B-endorphin in vitro and was also in vivo. The potency of synthetic oCRF to stimulate the secretion of ACTH and β-endorphin by cultured rat pituitary cells was measured using the procedure as generally set forth in Endocrinology, 91, 562 (1972). […] In.vivo testing is carried out using the general procedure set forth in C. Rivier et al., Science, 218, 377 (1982).

[2] = Lowering of blood pressure, in vivo testing by the general procedure of Example III

For `CC[C@H](C)[C@H](NC(=O)[C@H](CC(=O)O)NC(=O)[C@H](CC(C)C)NC(=O)[C@H](CC(C)C)NC(=O)[C@H](CCCCN)NC(=O)[C@H](CCCNC(=N)N)NC(=O)[C@H](CC(N)=O)NC(=O)[C@H](CO)NC(=O)[C@H](Cc1c[nH]cn1)NC(=O)[C@H](C)NC(=O)[C@H](CCC(N)=O)NC(=O)[C@H](CCC(N)=O)NC(=O)[C@H](C)NC(=O)[C@H](CC(C)C)NC(=O)[C@H](CCC(N)=O)NC(=O)[C@H](CC(=O)O)NC(=O)[C@H](C)NC(=O)[C@H](CCCCN)NC(=O)[C@H](CC(=O)O)NC(=O)[C@H](CCSC)NC(=O)[C@H](CCC(=O)O)NC(=O)[C@H](CC(C)C)NC(=O)[C@@H](NC(=O)[C@H](CCC(=O)O)NC(=O)[C@H](CCCNC(=N)N)NC(=O)[C@H](CC(C)C)NC(=O)[C@H](CC(C)C)NC(=O)[C@H](Cc1c[nH]cn1)NC(=O)[C@H](Cc1ccccc1)NC(=O)[C@@H](NC(=O)[C@H](CC(C)C)NC(=O)[C@H](CC(=O)O)NC(=O)[C@H](CC(C)C)NC(=O)[C@H](CO)NC(=O)[C@@H](NC(=O)[C@H]1CCCN1)[C@@H](C)CC)[C@@H](C)O)C(C)C)C(=O)N[C@@H](C)C(N)=O` [[D-Pro^4,Asp^22]-oCRF(4-41)] (H-[dP]ISLDLTFHLLREVLEMDKADQLAQQAHSNRKLLDIA-NH2), the “secretion of ACTH and β-END-LI” value [1] was “stimulates” and the “lowering of blood pressure” value [2] was “very significant lowering of blood pressure”.

In the case of `CCCC[C@H](NC(=O)[C@H](CCC(=O)O)NC(=O)[C@H](CC(C)C)NC(=O)[C@H](CCCC)NC(=O)[C@H](CCC(=O)O)NC(=O)[C@H](CCCNC(=N)N)NC(=O)[C@H](CC(C)C)NC(=O)[C@H](CC(C)C)NC(=O)[C@H](Cc1c[nH]cn1)NC(=O)[C@H](Cc1ccccc1)NC(=O)[C@@H](NC(=O)[C@H](CC(C)C)NC(=O)[C@H](CC(=O)O)NC(=O)[C@H](CC(C)C)NC(=O)[C@H](CO)NC(=O)[C@@H](NC(=O)[C@@H]1CCCN1C(=O)[C@@H]1CCCN1C(=O)[C@H](N)Cc1ccc(O)cc1)[C@@H](C)CC)[C@@H](C)O)C(=O)N[C@@H](C)C(=O)N[C@@H](CCCCN)C(=O)N[C@@H](C)C(=O)N[C@@H](CCC(=O)O)C(=O)N[C@@H](CCC(N)=O)C(=O)N[C@@H](CCC(=O)O)C(=O)N[C@@H](C)C(=O)N[C@@H](CCC(=O)O)C(=O)N[C@@H](CCC(N)=O)C(=O)N[C@@H](C)C(=O)N[C@@H](C)C(=O)N[C@@H](CC(C)C)C(=O)N[C@@H](CC(N)=O)C(=O)N[C@@H](CCCNC(=N)N)C(=O)N[C@@H](CC(C)C)C(=O)N[C@@H](CC(C)C)C(=O)N[C@@H](CC(C)C)C(=O)N[C@@H](CCC(=O)O)C(=O)N[C@@H](CCC(=O)O)C(=O)N[C@@H](C)C(N)=O` [[D-Tyr^3, Nle^18,21)-AHC(3-41)] (H-[dY]PPISLDLTFHLLRE[Nle]LE[Nle]AKAEQEAEQAALNRLLLEEA-NH2), the “secretion of ACTH and β-END-LI” value [1] was “stimulates” and the “lowering of blood pressure” value [2] was “very significant lowering of blood pressure”.

In the case of `CC[C@H](C)[C@H](NC(=O)[C@H](CCC(=O)O)NC(=O)[C@H](CC(=O)O)NC(=O)[C@H](CCSC)NC(=O)[C@H](CC(C)C)NC(=O)[C@H](CCCCNC(=N)N)NC(=O)[C@H](CCCNC(=N)N)NC(=O)[C@H](CC(N)=O)NC(=O)[C@H](CC(N)=O)NC(=O)[C@H](C)NC(=O)[C@H](C)NC(=O)[C@H](CCC(N)=O)NC(=O)[C@H](CCC(N)=O)NC(=O)[C@H](CCCCN)NC(=O)[C@H](CC(C)C)NC(=O)[C@H](CCCCN)NC(=O)[C@H](CCC(=O)O)NC(=O)[C@H](CCC(N)=O)NC(=O)[C@H](CCCCN)NC(=O)[C@H](CCC(=O)O)NC(=O)[C@@H](NC(=O)[C@H](CCC(=O)O)NC(=O)[C@@H](NC(=O)[C@H](CCSC)NC(=O)[C@H](CCCCN)NC(=O)[C@H](CCCNC(=N)N)NC(=O)[C@H](CC(C)C)NC(=O)[C@H](CC(C)C)NC(=O)[C@H](CCC(=O)O)NC(=O)[C@H](CC(C)C)NC(=O)[C@H](CO)NC(=O)[C@H](CC(C)C)NC(=O)[C@H](CC(=O)O)NC(=O)[C@@H](NC(=O)[C@H](CO)NC(=O)[C@@H](NC(=O)[C@@H]1CCCN1C(=O)[C@@H]1CCCN1C(=O)CNC(=O)[C@@H]1CCC(=O)N1)[C@@H](C)CC)[C@@H](C)CC)[C@@H](C)CC)[C@@H](C)CC)C(N)=O` [[Leu^26, Har^35, Met, Glu^39]-sauvagine], the “secretion of ACTH and β-END-LI” value [1] was “stimulates” and the “lowering of blood pressure” value [2] was “very significant lowering of blood pressure”.

For `CCCC[C@H](NC(=O)[C@H](CCC(=O)O)NC(=O)[C@H](CC(C)C)NC(=O)[C@H](CCCC)NC(=O)[C@H](CCC(=O)O)NC(=O)[C@H](CCCNC(=N)N)NC(=O)[C@H](CC(C)C)NC(=O)[C@H](CC(C)C)NC(=O)[C@H](Cc1c[nH]cn1)NC(=O)[C@H](Cc1ccccc1)NC(=O)[C@@H](NC(=O)[C@H](CC(C)C)NC(=O)[C@H](CC(=O)O)NC(=O)[C@H](CC(C)C)NC(=O)[C@H](CO)NC(=O)[C@@H](NC(=O)[C@@H]1CCCN1)[C@@H](C)CC)[C@@H](C)O)C(=O)N[C@@H](C)C(=O)N[C@@H](CCCNC(=N)N)C(=O)N[C@@H](C)C(=O)N[C@@H](CCC(=O)O)C(=O)N[C@@H](CCC(N)=O)C(=O)N[C@@H](CCC(=O)O)C(=O)N[C@@H](C)C(=O)N[C@@H](CCC(=O)O)C(=O)N[C@@H](CCC(N)=O)C(=O)N[C@@H](C)C(=O)N[C@@H](C)C(=O)N[C@@H](CC(C)C)C(=O)N[C@@H](CC(N)=O)C(=O)N[C@@H](CCCNC(=N)N)C(=O)N[C@@H](CC(C)C)C(=O)N[C@@H](CC(C)C)C(=O)N[C@@H](CC(C)C)C(=O)N[C@@H](CCC(=O)O)C(=O)N[C@@H](CCC(=O)O)C(=O)N[C@@H](C)C(N)=O` [[Nle^18,21, Arg^23]-AHC(5-41)] (H-PISLDLTFHLLRE[Nle]LE[Nle]ARAEQEAEQAALNRLLLEEA-NH2), the “secretion of ACTH and β-END-LI” value [1] was “stimulates” and the “lowering of blood pressure” value [2] was “very significant lowering of blood pressure”.

For `CCCC[C@H](NC(=O)[C@H](CCC(=O)O)NC(=O)[C@H](CC(C)C)NC(=O)[C@H](CCCC)NC(=O)[C@H](CCC(=O)O)NC(=O)[C@H](CCCNC(=N)N)NC(=O)[C@H](CC(C)C)NC(=O)[C@H](CC(C)C)NC(=O)[C@H](Cc1c[nH]cn1)NC(=O)[C@H](Cc1ccccc1)NC(=O)[C@@H](NC(=O)[C@H](CC(C)C)NC(=O)[C@H](CC(=O)O)NC(=O)[C@H](CC(C)C)NC(=O)[C@H](CO)NC(=O)[C@@H](N)[C@@H](C)CC)[C@@H](C)O)C(=O)N[C@@H](C)C(=O)N[C@@H](CCCCN)C(=O)N[C@@H](C)C(=O)N[C@@H](CCC(=O)O)C(=O)N[C@@H](CCC(N)=O)C(=O)N[C@@H](CCC(=O)O)C(=O)N[C@@H](C)C(=O)N[C@@H](CCC(=O)O)C(=O)N[C@@H](CCC(N)=O)C(=O)N[C@@H](C)C(=O)N[C@@H](C)C(=O)N[C@@H](CC(C)C)C(=O)N[C@@H](CC(N)=O)C(=O)N[C@@H](CCCNC(=N)N)C(=O)N[C@@H](CCCNC(=N)N)C(=O)N[C@@H](CC(C)C)C(=O)N[C@@H](CC(C)C)C(=O)N[C@@H](CCC(=O)O)C(=O)N[C@@H](CCC(=O)O)C(=O)N[C@@H](C)C(N)=O` [[Nle^18,21, Arg^36]-AHC(6-41)] (H-ISLDLTFHLLRE[Nle]LE[Nle]AKAEQEAEQAALNRRLLEEA-NH2), the “secretion of ACTH and β-END-LI” value [1] was “stimulates” and the “lowering of blood pressure” value [2] was “very significant lowering of blood pressure”.

In the case of `CCCC[C@H](NC(=O)[C@H](CCC(=O)O)NC(=O)[C@H](CCCNC(=N)N)NC(=O)[C@H](CC(C)C)NC(=O)[C@H](CC(C)C)NC(=O)[C@H](Cc1c[nH]cn1)NC(=O)[C@H](Cc1ccccc1)NC(=O)[C@@H](NC(=O)[C@H](CC(C)C)NC(=O)[C@H](CC(=O)O)NC(=O)[C@H](CC(C)C)NC(=O)[C@H](CO)NC(=O)[C@@H](NC(=O)[C@@H]1CCCN1C(=O)[C@@H]1CCCN1C(=O)[C@H](CCC(=O)O)NC(=O)[C@@H](N)CCC(N)=O)[C@@H](C)CC)[C@@H](C)O)C(=O)N[C@@H](CC(C)C)C(=O)N[C@@H](CCC(=O)O)C(=O)N[C@@H](CCSC)C(=O)N[C@H](C(=O)N[C@@H](CCCCN)C(=O)N[C@@H](C)C(=O)N[C@@H](CC(=O)O)C(=O)N[C@@H](CCC(N)=O)C(=O)N[C@@H](CC(C)C)C(=O)N[C@@H](C)C(=O)N[C@@H](CCC(N)=O)C(=O)N[C@@H](CCC(N)=O)C(=O)N[C@@H](C)C(=O)N[C@@H](Cc1c[nH]cn1)C(=O)N[C@@H](CO)C(=O)N[C@@H](CC(N)=O)C(=O)N[C@@H](CCCNC(=N)N)C(=O)N[C@@H](CCCCN)C(=O)N[C@@H](Cc1ccc(O)cc1)C(=O)N[C@@H](CC(C)C)C(=O)N[C@@H](CC(=O)O)C(=O)N[C@@H](CCC(=O)O)C(=O)N[C@@H](C)C(N)=O)[C@@H](C)O` [[Nle^18,Tyr^37,Glu^40]-oCRF(2-41)] (H-QEPPISLDLTFHLLRE[Nle]LEMTKADQLAQQAHSNRKYLDEA-NH2), the “secretion of ACTH and β-END-LI” value [1] was “stimulates” and the “lowering of blood pressure” value [2] was “very significant lowering of blood pressure”.

For “Ac-GEEPPISLDLTFHLLREVLEMARAEQLAQQAHLNRKLMEEI-NH2 [[Acetyl-Gly^1, Leu^33, Glu^40]-rCRF]”, the “secretion of ACTH and β-END-LI” value [1] was “stimulates” and the “lowering of blood pressure” value [2] was “very significant lowering of blood pressure”.

For “Ac-PPISLDLTFHLLREVLEMARAEQLAEQAHSNRKYMEEI-NH2”, the “secretion of ACTH and β-END-LI” value [1] was “stimulates” and the “lowering of blood pressure” value [2] was “very significant lowering of blood pressure to a greater extent than rCRF”.

With “H-PPISIDLSLELLRKMIEIAKQEKEKEQAANNRLLMDTI-NH2” the “secretion of ACTH and β-END-LI” value [1] was “stimulates” and the “lowering of blood pressure” value [2] was “very significant lowering of blood pressure”.

With “H-PPISLDLTFHLLREVLEMARAEQLAQQAHLNRKLMEEI-NH2” the “secretion of ACTH and β-END-LI” value [1] was “stimulates” and the “lowering of blood pressure” value [2] was “very significant lowering of blood pressure”.

For “H-SEEPPISLDLTFHLLREVLE[Nle]ARAEQLAQQAYLNRKLMEEI-NH2 [[Nle^21, Tyr^32, Leu^33, Glu^40]-rCRF]”, the “secretion of ACTH and β-END-LI” value [1] was “stimulates” and the “lowering of blood pressure” value [2] was “very significant lowering of blood pressure to a greater extent than rCRF”.
